Data taken from ChEMBL document CHEMBL1128949, “Novel tricyclic aminoacetyl and sulfonamide inhibitors of Ras farnesyl protein transferase” (Bioorg Med Chem Lett, 1996).

Experiments:
[1] = target: T1, Protein farnesyltransferase (Homo sapiens, UniProt P49354+P49356); assay: Inhibitory activity against Protein farnesyltransferase (Inactive); assay type: protein-complex assay
[2] = target: T1, Protein farnesyltransferase; assay: Inhibitory activity against protein farnesyltransferase.; assay type: protein-complex assay

IC50 [1] | IC50 [2] [µM] | SMILES
Not Active | – | CCCCCCCCCCCS(=O)(=O)N1CCC(=C2c3ccc(Cl)cc3CCc3cccnc32)CC1
– | 5.2 | CCS(=O)(=O)N1CCC(=C2c3ccc(Cl)cc3CCc3cccnc32)CC1
– | 0.66 | O=C(CN1C(=O)c2ccccc2C1=O)N1CCC(=C2c3ccc(Cl)cc3CCc3cccnc32)CC1
Not Active | – | CCCCCCCCCCS(=O)(=O)N1CCC(=C2c3ccc(Cl)cc3CCc3cccnc32)CC1
– | 3.6 | O=C([C@@H](Cc1c[nH]cn1)N1C(=O)c2ccccc2C1=O)N1CCC(=C2c3ccc(Cl)cc3CCc3cccnc32)CC1
– | 1 | O=S(=O)(Cc1ccccc1)N1CCC(=C2c3ccc(Cl)cc3CCc3cccnc32)CC1
– | > 11 | O=C(O)c1ccccc1S(=O)(=O)N1CCC(=C2c3ccc(Cl)cc3CCc3cccnc32)CC1
– | > 12 | CCCCCCCCS(=O)(=O)N1CCC(=C2c3ccc(Cl)cc3CCc3cccnc32)CC1
– | 1.2 | O=C(N[C@H](Cc1ccc(O)cc1)C(=O)N1CCC(=C2c3ccc(Cl)cc3CCc3cccnc32)CC1)OCc1ccccc1
– | 13 | O=S(=O)(c1cccs1)N1CCC(=C2c3ccc(Cl)cc3CCc3cccnc32)CC1
– | 8.4 | O=C(Cc1ccccc1)NCC(=O)N1CCC(=C2c3ccc(Cl)cc3CCc3cccnc32)CC1
– | > 12 | O=S(=O)(c1ccc2ccccc2c1)N1CCC(=C2c3ccc(Cl)cc3CCc3cccnc32)CC1
– | 11.4 | CC1(C)C2CCC1(CS(=O)(=O)N1CCC(=C3c4ccc(Cl)cc4CCc4cccnc43)CC1)C(=O)C2 (centres undefined)
– | 22.3 | NCC(=O)N1CCC(=C2c3ccc(Cl)cc3CCc3cccnc32)CC1
– | 1.9 | CN(C)S(=O)(=O)N1CCC(=C2c3ccc(Cl)cc3CCc3cccnc32)CC1
– | 2 | O=C(CN1C(=O)c2ccccc2S1(=O)=O)N1CCC(=C2c3ccc(Cl)cc3CCc3cccnc32)CC1
– | 10.6 | COC(=O)c1ccccc1S(=O)(=O)N1CCC(=C2c3ccc(Cl)cc3CCc3cccnc32)CC1

IC50 [1] | IC50 [2] [µM] | SMILES
– | > 10 | CC(C)C[C@H](C(=O)N1CCC(=C2c3ccc(Cl)cc3CCc3cccnc32)CC1)N1C(=O)c2ccccc2C1=O
– | > 10 | O=C([C@@H](Cc1ccccc1)N1C(=O)c2ccccc2C1=O)N1CCC(=C2c3ccc(Cl)cc3CCc3cccnc32)CC1
– | 1.9 | CS(=O)(=O)N1CCC(=C2c3ccc(Cl)cc3CCc3cccnc32)CC1
– | 3.05 | COc1ccc(CSC[C@@H](NC(=O)OC(C)(C)C)C(=O)N2CCC(=C3c4ccc(Cl)cc4CCc4cccnc43)CC2)cc1
– | 4.7 | CSCC[C@H](C(=O)N1CCC(=C2c3ccc(Cl)cc3CCc3cccnc32)CC1)N1C(=O)c2ccccc2C1=O
– | 8.8 | O=C(NCC(=O)N1CCC(=C2c3ccc(Cl)cc3CCc3cccnc32)CC1)c1ccccc1
– | 4.6 | C[C@H](C(=O)N1CCC(=C2c3ccc(Cl)cc3CCc3cccnc32)CC1)N1C(=O)c2ccccc2C1=O
– | 6.8 | CC(C)(C)OC(=O)NCC(=O)N1CCC(=C2c3ccc(Cl)cc3CCc3cccnc32)CC1
– | 4.8 | O=C(CC[C@H](C(=O)N1CCC(=C2c3ccc(Cl)cc3CCc3cccnc32)CC1)N1C(=O)c2ccccc2C1=O)Nc1ccccc1
– | 4.8 | CCCCS(=O)(=O)N1CCC(=C2c3ccc(Cl)cc3CCc3cccnc32)CC1
– | 6.29 | COc1ccc(CSC[C@@H](N)C(=O)N2CCC(=C3c4ccc(Cl)cc4CCc4cccnc43)CC2)cc1
– | 1 | C=CS(=O)(=O)N1CCC(=C2c3ccc(Cl)cc3CCc3cccnc32)CC1
– | 9.6 | O=C(CNCc1ccccc1)N1CCC(=C2c3ccc(Cl)cc3CCc3cccnc32)CC1
– | > 12 | O=[N+]([O-])c1ccc(S(=O)(=O)N2CCC(=C3c4ccc(Cl)cc4CCc4cccnc43)CC2)cc1
– | > 10 | O=C(CNC(c1ccccc1)(c1ccccc1)c1ccccc1)N1CCC(=C2c3ccc(Cl)cc3CCc3cccnc32)CC1
– | 8.5 | O=C(NCC(=O)N1CCC(=C2c3ccc(Cl)cc3CCc3cccnc32)CC1)OCc1ccccc1
– | 8.2 | CC1(C)C2CCC1(CS(=O)(=O)N1CCC(=C3c4ccc(Cl)cc4CCc4cccnc43)CC1)C(O)C2 (centres undefined)
